Assay results published in US9371358B2 (priority 2010, dated 2016).
Like-named read-outs stand apart in the source and are kept apart here.

Legend:
[1] = tested on: human colon cancer cell line (HT-29); assay: MTT cell proliferation assay, cytotoxicity and GI50, HT-29; details: read-out: Cytotoxic activity (GI50 Values) HT-29
Method: Cell Culture and Cytotoxicity:
(§1) Human prostate cancer cell line (PC-3) and human colon cancer cell line (HT-29) were obtained from the German Collection of Microorganisms. All cell lines were cultivated under conditions recommended by their respective depositors. […] For PC-3 cell lines 500 cells per well and for HT-29 cell lines 1500-2000 cells per well were seeded overnight into 96-well cell culture plates (TPP, Trasadingen, Switzerland) and exposed to serial dilutions of each inhibitor for 3 days. Formazan salt formation was measured at 490 nm using an enzyme-linked immunosorbent assay (ELISA) reader (DYNEX technologies MRX TC II). From each compound four independent replicates were prepared.

[2] = tested on: Human prostate cancer cell line (PC-3); assay: MTT cell proliferation assay, cytotoxicity and GI50, PC-3; details: read-out: Cytotoxic activity (GI50 Values) PC-3
Method: Cell Culture and Cytotoxicity:
as §1

| SMILES | GI50 ([1]; Homo sapiens, HT-29, 72 h) [pM] | GI50 ([2]; Homo sapiens, PC-3, 72 h) [pM] | GI50 ([1]; HT-29 cells, exposed 3 days, MTT, four independent replicates) [pM] | GI50 ([2]; PC-3 cells, exposed 3 days, MTT, four independent replicates) [pM] |
| --- | --- | --- | --- | --- |
| CC(=O)O[C@H]1C(=O)[C@@]2(C)[C@H]([C@H](OC(=O)c3ccccc3)[C@]3(O)C[C@H](OC(=O)[C@H](O)[C@@H](NC(=O)c4ccccc4)c4ccccc4)C(C)=C1C3(C)C)[C@]1(OC(C)=O)CO[C@@H]1C[C@@H]2O [taxol, reference compound] | 5300 | 7200 |  |  |
| CCCCNC(=O)CN(C(=O)[C@@H](NC(=O)[C@H]1CCCCN1C)[C@@H](C)CC)[C@H](C[C@@H](OC(C)=O)c1nc(C(=O)N[C@@H](Cc2ccccc2)C[C@H](C)C(=O)O)cs1)C(C)C [tubugi A] | 140 | 230 |  |  |
| CC[C@H](C)[C@H](NC(=O)[C@H]1CCCCN1C)C(=O)N(CC(=O)NC(C)C)[C@H](C[C@@H](OC(C)=O)c1nc(C(=O)N[C@@H](Cc2ccccc2)C[C@H](C)C(=O)O)cs1)C(C)C [tubugi B] | 340 | 290 |  |  |
| CCCCNC(=O)C(C)N(C(=O)[C@@H](NC(=O)[C@H]1CCCCN1C)[C@@H](C)CC)[C@H](C[C@@H](OC(C)=O)c1nc(C(=O)N[C@@H](Cc2ccccc2)C[C@H](C)C(=O)O)cs1)C(C)C (stereo partly shown) [tubugi D] | 560 | 220 |  |  |
| CC[C@H](C)[C@H](NC(=O)[C@H]1CCCCN1C)C(=O)N(COC(=O)CC(C)C)[C@H](C[C@@H](OC(C)=O)c1nc(C(=O)N[C@@H](Cc2ccc(O)cc2)C[C@H](C)C(=O)O)cs1)C(C)C [tubulysin A, reference compound] |  |  | 320 | 210 |
